Data reported in US20250275540A1, “USE OF PROTOPORPHYRINOGEN OXIDASE” (BEIJING DABEINONG BIOTECHNOLOGY CO., LTD., priority 2022, published 2025).

System: transgenic soybean plants
Assay: Detection of the herbicide tolerance of the transgenic soybean plants
Format: in vivo
Design: key to damage levels rated at grade: grade 0 means that the growth status of plants is essentially consistent with those sprayed with the blank solvent (water); grade 1 means that the average of the damage levels of plants is less than 10%; grade 2 means that the average of the damage levels of plants is greater than 10%; grade 3 means that the average of the damage levels of plants is 100%
Settings: for The grade of pesticide damage/plant: 0 / The grade of pesticide damage/plant: 1 / The grade of pesticide damage/plant: 2 / The grade of pesticide damage/plant: 3: 7 DAT
[1] = genotype Control vector, 50 g ai/ha
[2] = genotype Control vector, 100 g ai/ha
[3] = genotype PPO-AP-01, 100 g ai/ha
[4] = genotype PPO-EC-01, 100 g ai/ha

`CC(C)N(C)S(=O)(=O)NC(=O)c1cc(-n2c(=O)cc(C(F)(F)F)n(C)c2=O)c(F)cc1Cl` [saflufenacil, N′-[2-chloro-4-fluoro-5-(3-methyl-2,6-dioxo-4-(trifluoromethyl)-3,6-dihydro-1 (2H)-pyrimidine)benzoyl]-N-isopropyl-N-methylsulfamide] was tested, and the “The grade of pesticide damage/plant: 0” value (genotype CK, 50 g ai/ha) was 0 plant, the “The grade of pesticide damage/plant: 1” value (genotype CK, 50 g ai/ha) was 0 plant and the “The grade of pesticide damage/plant: 2” value (genotype CK, 50 g ai/ha) was 0 plant. For the same compound, the “The grade of pesticide damage/plant: 3” value (genotype CK, 50 g ai/ha) was 16 plant, the “The grade of pesticide damage/plant: 0” value (genotype CK, 100 g ai/ha) was 0 plant and the “The grade of pesticide damage/plant: 1” value (genotype CK, 100 g ai/ha) was 0 plant. For the same compound, the “The grade of pesticide damage/plant: 2” value (genotype CK, 100 g ai/ha) was 0 plant, the “The grade of pesticide damage/plant: 3” value (genotype CK, 100 g ai/ha) was 16 plant and the “The grade of pesticide damage/plant: 0” value [1] was 0 plant. The “The grade of pesticide damage/plant: 1” value [1] was 0 plant, the “The grade of pesticide damage/plant: 2” value [1] was 0 plant and the “The grade of pesticide damage/plant: 3” value [1] was 16 plant. For the same compound, the “The grade of pesticide damage/plant: 0” value [2] was 0 plant, the “The grade of pesticide damage/plant: 1” value [2] was 0 plant and the “The grade of pesticide damage/plant: 2” value [2] was 0 plant. For the same compound, the “The grade of pesticide damage/plant: 3” value [2] was 16 plant, the “The grade of pesticide damage/plant: 0” value (genotype PPO-AP-01, 50 g ai/ha) was 0 plant and the “The grade of pesticide damage/plant: 1” value (genotype PPO-AP-01, 50 g ai/ha) was 0 plant. The “The grade of pesticide damage/plant: 2” value (genotype PPO-AP-01, 50 g ai/ha) was 8 plant, the “The grade of pesticide damage/plant: 3” value (genotype PPO-AP-01, 50 g ai/ha) was 8 plant and the “The grade of pesticide damage/plant: 0” value [3] was 0 plant. The “The grade of pesticide damage/plant: 1” value [3] was 0 plant, the “The grade of pesticide damage/plant: 2” value [3] was 0 plant and the “The grade of pesticide damage/plant: 3” value [3] was 16 plant. For the same compound, the “tolerance to the herbicide (in words)” value (genotype PPO-AP-01, at different concentrations) was “basically no tolerance”, the “The grade of pesticide damage/plant: 0” value (genotype PPO-EC-01, 50 g ai/ha) was 9 plant and the “The grade of pesticide damage/plant: 1” value (genotype PPO-EC-01, 50 g ai/ha) was 7 plant. The “The grade of pesticide damage/plant: 2” value (genotype PPO-EC-01, 50 g ai/ha) was 0 plant, the “The grade of pesticide damage/plant: 3” value (genotype PPO-EC-01, 50 g ai/ha) was 0 plant and the “The grade of pesticide damage/plant: 0” value [4] was 8 plant. For the same compound, the “The grade of pesticide damage/plant: 1” value [4] was 3 plant, the “The grade of pesticide damage/plant: 2” value [4] was 5 plant and the “The grade of pesticide damage/plant: 3” value [4] was 0 plant. For the same compound, the “share of the plants that exhibited moderate- or poor-resistant tolerance” value (genotype PPO-EC-01, four-fold field concentration) was “about 32%”, the “share of the plants rated at grade 1” value (genotype PPO-EC-01, two-fold field concentration) was “about 44%” and the “The grade of pesticide damage/plant: 0” value (genotype PPOA-01, 50 g ai/ha) was 16 plant. The “The grade of pesticide damage/plant: 1” value (genotype PPOA-01, 50 g ai/ha) was 0 plant, the “The grade of pesticide damage/plant: 2” value (genotype PPOA-01, 50 g ai/ha) was 0 plant and the “The grade of pesticide damage/plant: 3” value (genotype PPOA-01, 50 g ai/ha) was 0 plant. The “The grade of pesticide damage/plant: 0” value (genotype PPOA-01, 100 g ai/ha) was 16 plant, the “The grade of pesticide damage/plant: 1” value (genotype PPOA-01, 100 g ai/ha) was 0 plant and the “The grade of pesticide damage/plant: 2” value (genotype PPOA-01, 100 g ai/ha) was 0 plant. The “The grade of pesticide damage/plant: 3” value (genotype PPOA-01, 100 g ai/ha) was 0 plant, the “The grade of pesticide damage/plant: 0” value (genotype PPOB-01, 50 g ai/ha) was 16 plant and the “The grade of pesticide damage/plant: 1” value (genotype PPOB-01, 50 g ai/ha) was 0 plant. For the same compound, the “The grade of pesticide damage/plant: 2” value (genotype PPOB-01, 50 g ai/ha) was 0 plant, the “The grade of pesticide damage/plant: 3” value (genotype PPOB-01, 50 g ai/ha) was 0 plant and the “The grade of pesticide damage/plant: 0” value (genotype PPOB-01, 100 g ai/ha) was 16 plant. For the same compound, the “The grade of pesticide damage/plant: 1” value (genotype PPOB-01, 100 g ai/ha) was 0 plant, the “The grade of pesticide damage/plant: 2” value (genotype PPOB-01, 100 g ai/ha) was 0 plant and the “The grade of pesticide damage/plant: 3” value (genotype PPOB-01, 100 g ai/ha) was 0 plant. For the same compound, the “The grade of pesticide damage/plant: 0” value (genotype PPOC-01, 50 g ai/ha) was 16 plant, the “The grade of pesticide damage/plant: 1” value (genotype PPOC-01, 50 g ai/ha) was 0 plant and the “The grade of pesticide damage/plant: 2” value (genotype PPOC-01, 50 g ai/ha) was 0 plant. For the same compound, the “The grade of pesticide damage/plant: 3” value (genotype PPOC-01, 50 g ai/ha) was 0 plant, the “The grade of pesticide damage/plant: 0” value (genotype PPOC-01, 100 g ai/ha) was 16 plant and the “The grade of pesticide damage/plant: 1” value (genotype PPOC-01, 100 g ai/ha) was 0 plant. The “The grade of pesticide damage/plant: 2” value (genotype PPOC-01, 100 g ai/ha) was 0 plant, the “The grade of pesticide damage/plant: 3” value (genotype PPOC-01, 100 g ai/ha) was 0 plant and the “The grade of pesticide damage/plant: 0” value (genotype PPOD-01, 50 g ai/ha) was 16 plant. For the same compound, the “The grade of pesticide damage/plant: 1” value (genotype PPOD-01, 50 g ai/ha) was 0 plant, the “The grade of pesticide damage/plant: 2” value (genotype PPOD-01, 50 g ai/ha) was 0 plant and the “The grade of pesticide damage/plant: 3” value (genotype PPOD-01, 50 g ai/ha) was 0 plant. For the same compound, the “The grade of pesticide damage/plant: 0” value (genotype PPOD-01, 100 g ai/ha) was 16 plant, the “The grade of pesticide damage/plant: 1” value (genotype PPOD-01, 100 g ai/ha) was 0 plant and the “The grade of pesticide damage/plant: 2” value (genotype PPOD-01, 100 g ai/ha) was 0 plant. The “The grade of pesticide damage/plant: 3” value (genotype PPOD-01, 100 g ai/ha) was 0 plant, the “The grade of pesticide damage/plant: 0” value (genotype PPOE-01, 50 g ai/ha) was 16 plant and the “The grade of pesticide damage/plant: 1” value (genotype PPOE-01, 50 g ai/ha) was 0 plant. For the same compound, the “The grade of pesticide damage/plant: 2” value (genotype PPOE-01, 50 g ai/ha) was 0 plant, the “The grade of pesticide damage/plant: 3” value (genotype PPOE-01, 50 g ai/ha) was 0 plant and the “The grade of pesticide damage/plant: 0” value (genotype PPOE-01, 100 g ai/ha) was 15 plant. For the same compound, the “The grade of pesticide damage/plant: 1” value (genotype PPOE-01, 100 g ai/ha) was 1 plant, the “The grade of pesticide damage/plant: 2” value (genotype PPOE-01, 100 g ai/ha) was 0 plant and the “The grade of pesticide damage/plant: 3” value (genotype PPOE-01, 100 g ai/ha) was 0 plant. For the same compound, the “The grade of pesticide damage/plant: 0” value (genotype PPOF-01, 50 g ai/ha) was 16 plant, the “The grade of pesticide damage/plant: 1” value (genotype PPOF-01, 50 g ai/ha) was 0 plant and the “The grade of pesticide damage/plant: 2” value (genotype PPOF-01, 50 g ai/ha) was 0 plant. The “The grade of pesticide damage/plant: 3” value (genotype PPOF-01, 50 g ai/ha) was 0 plant, the “The grade of pesticide damage/plant: 0” value (genotype PPOF-01, 100 g ai/ha) was 16 plant and the “The grade of pesticide damage/plant: 1” value (genotype PPOF-01, 100 g ai/ha) was 0 plant. For the same compound, the “The grade of pesticide damage/plant: 2” value (genotype PPOF-01, 100 g ai/ha) was 0 plant, the “The grade of pesticide damage/plant: 3” value (genotype PPOF-01, 100 g ai/ha) was 0 plant and the “tolerance to the herbicide (in words)” value (genotypes PPOA-01 to PPOF-01, four-fold field concentration) was “high-resistant tolerance”. The “damage levels rated at grade” value (genotypes PPOA-01 to PPOF-01, two-fold field concentration) was 0 and the “tolerance to the herbicide (in words)” value (genotypes PPOA-01 to PPOF-01 and PPO-EC-01, compared with the control vector and CK) was “different extents of tolerance”.
